Literature values as cited in patent publication US20140199404A1, “METHOD FOR TREATING CANCER BASED ON LEVEL OF A NUCLEOSIDE TRANSPORTER” (ABRAXIS BIOSCIENCE, LLC, priority 2013, published 2014).

Experiments:
[1] = test system: locally advanced pancreatic cancer; details: patients with locally advanced pancreatic cancer
[2] = test system: pancreatic cancer; details: Moore et al. 2007

Compound | median overall survival [1] | median time to disease progression [1] | median overall survival [2] | median progression free survival [2]
O=c1[nH]cc(F)c(=O)[nH]1 [5-FU, 5-fluororuracil] | 4.2 months | 0.9 months | – | –
Nc1ccn([C@@H]2O[C@H](CO)[C@@H](O)C2(F)F)c(=O)n1 [gemcitabine] | 5.7 months | 2.1 months | 6.0 months | 3.5 months
